Reference: US8581605B2 (priority 2006, dated 2013)

Target: αHL ion channel (Staphylococcus aureus, UniProt P09616)
Format: biochemical
Details: pH 7.4

Chain of αHL ion channel (P09616 27-319 limits assumed): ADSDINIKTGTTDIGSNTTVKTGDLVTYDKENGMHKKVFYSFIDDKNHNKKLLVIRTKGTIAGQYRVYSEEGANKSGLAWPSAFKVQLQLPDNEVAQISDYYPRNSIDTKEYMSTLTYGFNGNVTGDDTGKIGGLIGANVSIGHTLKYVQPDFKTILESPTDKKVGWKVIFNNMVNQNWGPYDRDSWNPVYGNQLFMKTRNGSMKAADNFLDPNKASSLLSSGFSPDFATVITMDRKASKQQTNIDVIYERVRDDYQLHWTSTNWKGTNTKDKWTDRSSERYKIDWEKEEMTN

hepta-6-sulfato-β-cyclodextrin [s7βCD]
reduction of conductance through the αHL when s7βCD is bound: ~90%
